Measurements published in publication PMC7024391, “Trypanocidal Activity of Flavanone Derivatives” (Molecules, 2020).

Legend:
[1] = tested on: Trypanosoma cruzi (amastigotes and trypomastigotes), Tulahuen strain; assay: Anti-Trypanosoma cruzi activity assay (amastigotes and trypomastigotes) in infected L929 cells, beta-galactosidase reporter; assay type: cell-based; settings: 96 h incubation; for IC50: Trypanosoma cruzi, ± 0.2, read-out: Trypanocide IC50(μM) ± 0.2
Protocol: Flavanone derivatives were evaluated for anti-T. cruzi activity against the intracellular forms of the parasite. Although the use of epimastigotes present in the midgut vector may be utilized for initial screening, we have instead opted for the simultaneous use of trypomastigote and intracellular amastigotes forms that are present during both acute and chronic phases of the disease. This approach is in accordance with the Drugs for Neglected Diseases Initiative guidelines (DNDi). Moreover, it also has the advantage of evaluating bioactive compounds in infected cells while at the same time monitoring their effects on both the relevant forms of the parasite in the same system. Benznidazole was used as a positive control against T. cruzi and cytotoxicity was determined in mammalian L929 cells (Table 1). The bioavailability profile of the flavanones was evaluated by applying the Lipinski rule and data related to the risk of toxicity (mutagenicity, tumorigenicity, irritability, and effects on the reproductive system) carried out through online programs “Molinspiration” and “OSIRIS property explorer” (Table 1). […] Nevertheless, this preliminary result motivated us to investigate other analogs bearing substituents in order to improve potency and selectivity. […] Moreover, the selectivity of 2d was almost 4 times greater than 2a. The importance of methoxy substituents for trypanocidal activity has been noted in other studies. […] These compounds resembled more closely the chemical structure of the trypanocidal natural product (brevifolin carboxylate) that these structures were based on. Some enhancement in the trypanocidal activity of hybrid coumarin-chalcone compounds was also noted when the methoxy groups were introduced into either the 2 or 5 positions of the benzene ring. The inclusion of a pyridine moiety in compound 2e was supported by previous reports describing the anti-T. cruzi activity of 2-pyridyl derivatives and their capacity to inhibit cruzain catalytic activity. […] No improvements in anti-T. cruzi activity were also observed for flavanones substituted at the benzoyl moiety (2g–2o and 2v–2x). […] The physicochemical drug descriptors of the molecular properties for the synthesized compounds were calculated by Molinspiration software (Table 1). The majority of the tested compounds satisfy the Lipinski rule with no violations and therefore displaying potentially good bioavailability. There were no linear correlations observed between molecular hydrophobicity and bioactivity.
The in vitro anti-T. cruzi activity was evaluated on L929 cells (mouse fibroblasts) infected with Tulahuen strain of the parasite expressing the Escherichia coli β-galactosidase as reporter gene. Briefly, for the bioassay, 4000 L929 cells were added to each well of a 96-well microtiter plate. After an overnight incubation, 40,000 trypomastigotes were added to the cells and incubated for 2 h. Then, the medium containing extracellular parasites were replaced with 200 μL of fresh medium and the plate was incubated for an additional 48 h to establish the infection. For IC50 determination, the cells were exposed to each synthesized compound at serial decreasing dilutions and the plate was incubated for 96 h. After this period, 50 μL of 500 μM chlorophenol red beta-D-galactopyranoside (CPRG) in 0.5% Nonidet P40 was added to each well, and the plate was incubated for 16–20 h, after which the absorbance at 570 nm was measured. Controls with uninfected cells, untreated infected cells, infected cells treated with Benznidazole at 3.8 μM (positive control) or DMSO 1% were used. The results were expressed as the percentage of T. cruzi growth inhibition in compound-tested cells as compared to the infected cells and untreated cells. The IC50 values were calculated by linear interpolation. Quadruplicates were run in the same plate, and the experiments were repeated at least once.

[2] = In vitro cytotoxic test on uninfected L-929 cells (alamarBlue); assay type: cell-based, mouse; settings: mouse, uninfected L-929 cells; mammalian L929 cells, 96 h, alamarBlue; ± 2.0; read-out: Cytotoxicity CC50(μM) ± 2.0
Protocol: (§1) The active compounds were tested in vitro for determination of cellular toxicity against uninfected L-929 cells using the alamarBlue® dye. The cells were exposed to compounds at increasing concentrations starting at IC50 value for T. cruzi. After 96 h of incubation with the tested compounds, the alamarBlue® was added and the absorbance at 570 and 600 nm measured after 4–6 h. The cell viability was expressed as the percentage of difference in the reduction between treated and untreated cells. IC50 values were calculated by linear interpolation, and the selectivity index (SI) was determined based on the ratio of the IC50 value in the host cell divided by the IC50 value of the parasite. Quadruplicates were run in the same plate, and the experiments were repeated at least once.

L929 cells = assay: as above; assay type: cell-based, mouse; settings: CC50 L929 / IC50 T. cruzi
Protocol: as §1

In the case of O=C(c1ccccc1)[C@@H]1C(=O)c2ccccc2O[C@H]1c1ccccc1 (relative stereo) [Compound 2a, trans-3-benzoyl-2-phenylchroman-4-one], the IC50 [1] is reported as 8.8 µM, the CC50 at 96 h [2] is reported as 80 µM and the “SI (selectivity index calculated from CC50/IC50)” value (L929 cells) is reported as 9.1.

For O=C(c1ccccc1)[C@@H]1C(=O)c2ccccc2O[C@H]1c1ccccc1Cl (relative stereo) [Compound 2b, trans-3-benzoyl-2-(2-chlorophenyl)chroman-4-one], the IC50 [1] was 10.7 µM, the CC50 at 96 h [2] was 442 µM and the “SI (selectivity index calculated from CC50/IC50)” value (L929 cells) was 40.3.

With O=C(c1ccccc1)[C@@H]1C(=O)c2ccccc2O[C@H]1c1ccc(F)cc1 (relative stereo) [Compound 2c, trans-3-benzoyl-2-(4-fluorophenyl)chroman-4-one] the IC50 [1] was 21.9 µM, the CC50 at 96 h [2] was 231 µM and the “SI (selectivity index calculated from CC50/IC50)” value (L929 cells) was 10.5.

In the case of COc1ccc([C@@H]2Oc3ccccc3C(=O)[C@H]2C(=O)c2ccccc2)cc1 (relative stereo) [Compound 2d, trans-3-benzoyl-2-(4-methoxyphenyl)chroman-4-one], the IC50 [1] is reported as 5.8 µM, the CC50 at 96 h [2] is reported as 223 µM and the “SI (selectivity index calculated from CC50/IC50)” value (L929 cells) is reported as 38.5.

For O=C(c1ccccc1)[C@@H]1C(=O)c2ccccc2O[C@H]1c1ccccn1 (relative stereo) [Compound 2e, trans-3-benzoyl-2-(pyridin-2-yl)chroman-4-one], the IC50 [1] was 184 µM, the CC50 at 96 h [2] was 243 µM and the “SI (selectivity index calculated from CC50/IC50)” value (L929 cells) was 1.3.

In the case of O=C(c1ccccc1)[C@@H]1C(=O)c2ccccc2O[C@H]1c1ccc(OCc2ccccc2)cc1 (relative stereo) [Compound 2f, trans-3-benzoyl-2-(4-(benzyloxy)phenyl)chroman-4-one], the IC50 [1] is reported as 7.6 µM, the CC50 at 96 h [2] is reported as 92.1 µM and the “SI (selectivity index calculated from CC50/IC50)” value (L929 cells) is reported as 12.1.

For Cc1ccc(C(=O)[C@@H]2C(=O)c3ccccc3O[C@H]2c2ccccc2)cc1 (relative stereo) [Compound 2g, trans-3-(4-methylbenzoyl)-2-phenylchroman-4-one], the “Trypanocide IC50(μM) ± 0.2” value [1] was “Inactive”.

In the case of Cc1ccc(C(=O)[C@@H]2C(=O)c3ccccc3O[C@H]2c2ccc(F)cc2)cc1 (relative stereo) [Compound 2h, trans-2-(4-fluorophenyl)-3-(4-methylbenzoyl)chroman-4-one], the IC50 [1] is reported as 22.5 µM, the CC50 at 96 h [2] is reported as 111 µM and the “SI (selectivity index calculated from CC50/IC50)” value (L929 cells) is reported as 4.9.

With COc1ccc([C@@H]2Oc3ccccc3C(=O)[C@H]2C(=O)c2ccc(C)cc2)cc1 (relative stereo) [Compound 2i, trans-2-(4-methoxyphenyl)-3-(4-methylbenzoyl)chroman-4-one] the IC50 [1] was 25 µM, the CC50 at 96 h [2] was 107 µM and the “SI (selectivity index calculated from CC50/IC50)” value (L929 cells) was 4.3.

For Cc1ccc(C(=O)[C@@H]2C(=O)c3ccccc3O[C@H]2c2ccccc2Cl)cc1 (relative stereo) [Compound 2j, trans-2-(2-chlorophenyl)-3-(4-methylbenzoyl)chroman-4-one], the IC50 [1] was 63 µM, the CC50 at 96 h [2] was 62.5 µM and the “SI (selectivity index calculated from CC50/IC50)” value (L929 cells) was 1.

For O=C(c1ccc(Cl)cc1)[C@@H]1C(=O)c2ccccc2O[C@H]1c1ccccc1 (relative stereo) [Compound 2k, trans-3-(4-chlorobenzoyl)-2-phenylchroman-4-one], the IC50 [1] was 29.3 µM, the CC50 at 96 h [2] was 110 µM and the “SI (selectivity index calculated from CC50/IC50)” value (L929 cells) was 3.8.

With COc1ccc(C(=O)[C@@H]2C(=O)c3ccccc3O[C@H]2c2ccccc2)cc1 (relative stereo) [Compound 2l, trans-3-(4-methoxybenzoyl)-2-phenylchroman-4-one] the IC50 [1] was 223 µM, the CC50 at 96 h [2] was 223 µM and the “SI (selectivity index calculated from CC50/IC50)” value (L929 cells) was 1.

With COc1ccc(C(=O)[C@@H]2C(=O)c3ccccc3O[C@H]2c2ccc(OC)cc2)cc1 (relative stereo) [Compound 2m, trans-3-(4-methoxybenzoyl)-2-(4-methoxyphenyl)chroman-4-one] the IC50 [1] was 37.4 µM, the CC50 at 96 h [2] was 103 µM and the “SI (selectivity index calculated from CC50/IC50)” value (L929 cells) was 2.8.

For COc1ccc(C(=O)[C@@H]2C(=O)c3ccccc3O[C@H]2c2ccc(F)cc2)cc1 (relative stereo) [Compound 2n, trans-2-(4-fluorophenyl)-3-(4-methoxybenzoyl)chroman-4-one], the IC50 [1] was 213 µM.

With COc1ccc(C(=O)[C@@H]2C(=O)c3ccccc3O[C@H]2c2ccccc2Cl)cc1 (relative stereo) [Compound 2o, trans-2-(2-chlorophenyl)-3-(4-methoxybenzoyl)chroman-4-one] the IC50 [1] was 26.5 µM, the CC50 at 96 h [2] was 408 µM and the “SI (selectivity index calculated from CC50/IC50)” value (L929 cells) was 15.4.

For COc1ccc2c(c1)C(=O)[C@@H](C(=O)c1ccccc1)[C@H](c1ccccc1)O2 (relative stereo) [Compound 2p, trans-3-benzoyl-6-methoxy-2-phenylchroman-4-one], the “Trypanocide IC50(μM) ± 0.2” value [1] was “Inactive”.

For COc1ccc([C@@H]2Oc3ccc(OC)cc3C(=O)[C@H]2C(=O)c2ccccc2)cc1 (relative stereo) [Compound 2q, trans-3-benzoyl-6-methoxy-2-(4-methoxyphenyl)chroman-4-one], the IC50 [1] was 141 µM, the CC50 at 96 h [2] was 206 µM and the “SI (selectivity index calculated from CC50/IC50)” value (L929 cells) was 1.4.

For COc1ccc2c(c1)C(=O)[C@@H](C(=O)c1ccccc1)[C@H](c1ccc(F)cc1)O2 (relative stereo) [Compound 2r, trans-3-benzoyl-2-(4-fluorophenyl)-6-methoxychroman-4-one], the IC50 [1] was 17.6 µM, the CC50 at 96 h [2] was 106 µM and the “SI (selectivity index calculated from CC50/IC50)” value (L929 cells) was 6.1.

With COc1ccc2c(c1)C(=O)[C@@H](C(=O)c1ccccc1)[C@H](c1ccccc1Cl)O2 (relative stereo) [Compound 2s, trans-3-benzoyl-2-(2-chlorophenyl)-6-methoxychroman-4-one] the IC50 [1] was 18.4 µM, the CC50 at 96 h [2] was 102 µM and the “SI (selectivity index calculated from CC50/IC50)” value (L929 cells) was 5.5.

In the case of O=C(c1ccccc1)[C@@H]1C(=O)c2cc(Cl)ccc2O[C@H]1c1ccccc1 (relative stereo) [Compound 2t, trans-3-benzoyl-6-chloro-2-phenylchroman-4-one], the IC50 [1] is reported as 23.2 µM, the CC50 at 96 h [2] is reported as 221 µM and the “SI (selectivity index calculated from CC50/IC50)” value (L929 cells) is reported as 9.5.

With COc1ccc([C@@H]2Oc3ccc(Cl)cc3C(=O)[C@H]2C(=O)c2ccccc2)cc1 (relative stereo) [Compound 2u, trans-3-benzoyl-6-chloro-2-(4-methoxyphenyl)chroman-4-one] the IC50 [1] was 59.2 µM, the CC50 at 96 h [2] was 205 µM and the “SI (selectivity index calculated from CC50/IC50)” value (L929 cells) was 3.5.

In the case of O=C(c1ccco1)[C@@H]1C(=O)c2ccccc2O[C@H]1c1ccccc1 (relative stereo) [Compound 2v, trans-3-(furan-2-carbonyl)-2-phenylchroman-4-one], the “Trypanocide IC50(μM) ± 0.2” value [1] is reported as “Inactive”.

For COc1ccc([C@@H]2Oc3ccccc3C(=O)[C@H]2C(=O)c2ccco2)cc1 (relative stereo) [Compound 2w, trans-3-(furan-2-carbonyl)-2-(4-methoxyphenyl)chroman-4-one], the “Trypanocide IC50(μM) ± 0.2” value [1] was “Inactive”.

In the case of O=C(c1ccco1)[C@@H]1C(=O)c2ccccc2O[C@H]1c1ccc(F)cc1 (relative stereo) [Compound 2x, trans-2-(4-fluorophenyl)-3-(furan-2-carbonyl)chroman-4-one], the “Trypanocide IC50(μM) ± 0.2” value [1] is reported as “Inactive”.

For C[C@@H]1Oc2ccccc2C(=O)[C@H]1C(=O)c1ccccc1 (relative stereo) [Compound 3, trans-3-benzoyl-2-methylchroman-4-one], the “Trypanocide IC50(μM) ± 0.2” value [1] was “completely inactive”.

With O=C(Cn1ccnc1[N+](=O)[O-])NCc1ccccc1 [Bnz, Benznidazole, reference compound] the IC50 [1] was 3.8 µM and the “SI (selectivity index calculated from CC50/IC50)” value (L929 cells) was 625.
